Data reported in US20070098735A1, “Methods for the Elimination of Pathogens and Other Particulate Agents” (priority 2005, published 2007).

Columns and labels:
[1] = tested on: CD4+ T cells purified from spleens of DO 11.10 mice; assay: Proliferation of CD4+ T cells after MHC-II presentation of OVA-coated yeast by macrophages (FACS); assay type: cell-based; details: macrophages treated with HSP70 100 μg/ml and OVA-coated yeast
Protocol: (§1) Proliferation of CD4+ T cells and INF-γ (interferon gamma) release. Unlabeled S. cerevisiae (80 μg) was incubated with excess chicken ovary albumin (OVA) at 37° C. for 1 hour and washed repeatedly to eliminate free OVA protein. S. cerevisiae-OVA complexes (OVA-coated yeast) were administered to macrophages treated with or without HSP70. Macrophages were then washed and irradiated at 12,000 rads and assessed for viability by trypan blue exclusion. Subsequently, they were co-cultured with CD4+ T lymphocytes that were purified from spleens of DO 11.10 mice and labeled with carboxyfluoroscein succinimidyl ester (CSFE). […] Following the 48-hour incubation, proliferation of CD4+ cells was determined with FACS and IFN-γ release in the supernatant was tested by enzyme-linked immunosorbent assay (ELISA; Pierce, Ill.).
(§2) Alexafluor labeled S. cerevisiae were coated with whole ovalbumin (OVA) protein 1 mg/ml by co-incubation at 37° C. for 20 minutes and washed until free OVA protein was removed (washes were tested by gel electrophoresis using SDS-PAGE and immunoblotting). […] Resultant proliferation of the CSFE-labeled CD4+ was measured by FACS as an indirect measure of the amount of OVA protein processed and its peptide epitope presented in context of MHC-II. […]

[2] = tested on: CD4+ T cells purified from spleens of DO 11.10 mice (IFN-γ); assay: IFN-γ release by CD4+ T cells (ELISA); assay type: cell-based; details: compared to ova-coated yeast alone or HSP70 given alone
Protocol: as §1, §2

[3] = tested on: full thickness wounds of naïve mice; assay: Adoptive transfer of pre-treated RAW 264.7 macrophages into wounded mice, wound closure; assay type: in vivo
Protocol: Macrophage Cell Culture, Pre-treatment, and Adoptive Transfer. RAW 264.7 macrophages (ATCC) were grown as described by ATCC. Cells were harvested by gently scraping them from the cell culture flasks, centrifuged and washed once in cultured grade PBS. […] They were then washed 3 times with PBS, and were re-suspended to achieve a concentration of 400,000, 40,000, or 4,000 cells per 0.5 ml PBS. Adoptive transfer of these cells was performed by subcutaneous injections in the nape of the neck using a 25-gauge needle in mice that were wounded as previously described. Adoptive transfers were given on days 0, 2 and 4 post-operatively.
Macrophages were treated in vitro with either HSPs or non-HSP controls and transferred into naïve wounded mice (as described in Materials and Methods) to test if HSPs could in part mediate some of their activity through macrophages. […] Data is plotted as average percent wound closure ±SEM on day 2. *P values were obtained using the Student's t-test by comparing HSP treatment to all of the non-HSP control treatments. The least significant P value was reported.
Titratability of adoptive transfer was examined by transferring 4,000, 40,000 or 400,000 macrophages pre-treated as described in Materials and Methods.

[4] = tested on: RAW 264.7 macrophages; assay: In vitro macrophage phagocytosis of wound debris; assay type: cell-based, murine; details: RAW264.7, labeled wound debris, 37° C.

For “HSP70: heat shock protein purified from murine livers, prepared as a complex with endogenous peptide”, the “CD4+ proliferation” value [1] was 20%, the “IFN-γ production by CD4+ cells” value [2] was “increase in their ability to produce IFN-γ” and the “titratability of adoptive transfer by cell number” value ([3]; 4,000, 40,000 or 400,000 pre-treated macrophages) was “Increasing the number of HSP pretreated cells increases the percentage of wound closure”. For the same substance, the “early wound closure after adoptive transfer of pre-treated macrophages” value ([3]; 400,000 macrophages pre-treated at 30 μg/dose) was “significantly accelerated early wound closure”, the “wound healing on day 2 after adoptive transfer of pre-treated macrophages” value ([3]; 400,000 macrophages pre-treated at 30 μg/dose, day 2 post surgery) was 62% and the “increase in phagocytosed wound debris compared to controls” value [4] was 25%.
